This note sets out measurements from patent publication US10875858B2, “Process for preparing halogenated pyridine derivatives” (Bayer CropScience Aktiengesellschaft, priority 2016, dated 2020).

A short description of the data set: log P by HPLC-MS. In kind it is physicochemical.
Broadly, the chromatographic logP is a lipophilicity value derived from retention on a column. A lower chromatographic logP goes with a more hydrophilic compound. With `Cn1c(-c2nc(Br)ccc2F)nc2cc(C(F)(F)F)nnc21` [Example 8, 6-(6-bromo-3-fluoropyridin-2-yl)-7-methyl-3-(trifluoromethyl)-7H-imidazo[4,5-c]pyridazine], the chromatographic logP was 2.58. In turn, `COC(=O)c1ccc(F)c(-c2nc3cc(C(F)(F)F)nnc3n2C)n1` [Example 7, methyl 5-fluoro-6-[7-methyl-3-(trifluoromethyl)-7H-imidazo[4,5-c]pyridazin-6-yl]pyridine-2-carboxylate] came in with a chromatographic logP of 2.09.

`COC(=O)c1ccc(F)c(-c2nc3cc(C(F)(F)F)ncc3n2C)n1` [Example 3, methyl 5-fluoro-6-[3-methyl-6-(trifluoromethyl)-3H-imidazo[4,5-c]pyridin-2-yl]pyridine-2-carboxylate] returned a chromatographic logP of 2.03.

`Cn1cnc2cc(C(F)(F)F)nnc21` [Example 5, 7-methyl-3-(trifluoromethyl)-7H-imidazo[4,5-c]pyridazine]: the chromatographic logP was determined as 0.95. Then `Cn1c(-c2nc(Br)ccc2F)nc2cc(C(F)(F)F)ncc21` [Example 4, 2-(6-bromo-3-fluoropyridin-2-yl)-3-methyl-6-(trifluoromethyl)-3H-imidazo[4,5-c]pyridine], with 2.51; and `Cn1c(-c2nc(Cl)ccc2F)nc2cc(C(F)(F)F)nnc21` [Example 6, 6-(6-chloro-3-fluoropyridin-2-yl)-7-methyl-3-(trifluoromethyl)-7H-imidazo[4,5-c]pyridazine], with 2.46. On to `Cn1c(-c2nc(Cl)ccc2F)nc2cc(C(F)(F)F)ncc21` [Example 2, 2-(6-chloro-3-fluoropyridin-2-yl)-3-methyl-6-(trifluoromethyl)-3H-imidazo[4,5-c]pyridine], for which the chromatographic logP was found to be 2.38.
